Measured values from US11248234B2, “Herbicide-resistant hydroxyphenylpyruvate dioxygenases” (BASF SE, priority 2015, dated 2022).

What was measured:
[1] = test system: T2 Arabidopsis plants expressing mutated variants of Scenedesmus HPPD (all traits and events); assay: Greenhouse spray test, injury evaluation; format: in vivo, Arabidopsis thaliana; conditions: for leaf damage: two lowest application rates (1.56 g/ha and 6.25 g/ha)
Protocol: (§1) Non-transgenic control plants were treated in parallel and pictures taken 14 days after treatment.
(§2) For post emergence treatment, the test plants are first grown to a height of 3 to 15 cm, depending on the plant habit, and only then treated with the herbicides. For this purpose, the test plants are either sown directly and grown in the same containers, or they are first grown separately and transplanted into the test containers a few days prior to treatment.
(§3) Additionally, T1 and T2 transgenic Arabidopsis plants can be tested for improved tolerance to HPPD-inhibiting herbicides in greenhouse studies. Herbicide injury scoring is done 2-3 weeks after treatment and is rated on a scale of 0 to 100%, 0% being no injury and 100% being complete death.
(§4) Transgenic T2 Arabidopsis plants were sprayed with a range of doses from 1.56-25 g/ha of different HPPD-inhibiting herbicides and injury evaluations were taken two weeks after treatment (FIG. 4). As depicted in Table 8, control plants were severely injured by all doses of herbicides applied, with at least 58% of leaf material being damaged at the lowest application rate and 100% leaf damage at the second application rate.

[2] = test system: transgenic Arabidopsis plants (T2) SoHPPD I419V (short); assay: Greenhouse spray test, injury evaluation; format: in vivo, Arabidopsis thaliana; conditions: for Injury: 14 DAT
Protocol: as §1, §2, §3, §4

[3] = test system: Arabidopsis overexpression line SoHPPD Q317H (short); assay: Germination assay in 48-well plates (tolerance factor); format: in vivo, Arabidopsis thaliana; conditions: plant growth IC50 transgenic / wildtype; mean of 5 T2 events; non-transgenic set to 1
Protocol: (§5) Tolerance to HPPD-inhibiting herbicides can also be assessed in Arabidopsis. In this case transgenic Arabidopsis thaliana plants are assayed for improved tolerance to HPPD-inhibiting herbicides in 48-well plates (germination assay). Seeds are surface sterilized by stirring for 5 min in ethanol+water (70+30 by volume), rinsing one time with ethanol+water (70+30 by volume) and two times with a sterile, deionized water. The seeds are resuspended in 0.1% agar dissolved in water (w/v). Four to five seeds per well are plated on solid nutrient medium consisting of half-strength Murashige Skoog nutrient solution, pH 5.8 (Murashige and Skoog (1962) Physiologia Plantarum 15: 473-497). Compounds are dissolved in dimethylsulfoxid (DMSO) and added to the medium prior solidification (final DMSO concentration 0.1%). Multi well plates are incubated in a growth chamber at 22° C., 75% relative humidity and 110 μmol Phot*m−2*s−1 with 14:10 h light:dark photoperiod. Growth inhibition is evaluated seven to ten days after seeding in comparison to wild type plants. Tolerance factor is calculated by dividing the plant growth IC50 value of transgenic plants containing a HPPD sequence by that of wildtype plants.

[4] = test system: Arabidopsis overexpression line SoHPPD_F363I (short); assay: as above; format: in vivo, Arabidopsis thaliana; conditions: plant growth IC50 transgenic / wildtype; mean of 5 T2 events; non-transgenic set to 1
Protocol: as §5

[5] = test system: Arabidopsis overexpression line SoHPPD I455V; assay: as above; format: in vivo, Arabidopsis thaliana; conditions: plant growth IC50 transgenic / wildtype; mean of 5 T2 events; non-transgenic set to 1
Protocol: as §5

[6] = test system: Arabidopsis overexpression line SoHPPD (SEQ ID NO: 4); assay: as above; format: in vivo, Arabidopsis thaliana; conditions: plant growth IC50 transgenic / wildtype; mean of 5 T2 events; non-transgenic set to 1
Protocol: as §5

[7] = test system: Arabidopsis overexpression line SoHPPD Q317H, A318G, E345Q (short); assay: as above; format: in vivo, Arabidopsis thaliana; conditions: plant growth IC50 transgenic / wildtype; mean of 5 T2 events; non-transgenic set to 1
Protocol: as §5

[8] = test system: Arabidopsis overexpression line SoHPPD (SEQ ID NO: 2); assay: as above; format: in vivo, Arabidopsis thaliana; conditions: plant growth IC50 transgenic / wildtype; mean of 5 T2 events; non-transgenic set to 1
Protocol: as §5

[9] = test system: Arabidopsis overexpression line SoHPPD I419V (short); assay: as above; format: in vivo, Arabidopsis thaliana; conditions: plant growth IC50 transgenic / wildtype; mean of 5 T2 events; non-transgenic set to 1
Protocol: as §5

[10] = test system: Scenedesmus HPPD with glutamine 317 exchanged to methionine, alanine 318 substituted by glycine and glutamate 345 mutated to glutamin; assay: In vitro HPPD activity assay; format: biochemical, Scenedesmus obliquus; conditions: in words, from Table 6 data
Protocol: HPPD produces homogentisic acid and CO2 from 4-hydroxyphenylpyruvate (4-HPP) and O2. The activity assay for HPPD is based on the analysis of homogentisic acid by reversed phase HPLC.
The assay mixture can contain 150 mM potassium phosphate buffer pH 7.0, 50 mM L-ascorbic acid, 100 μM Catalase (Sigma-Aldrich), 1 μM FeSO4 and 0.2 units of purified mutated HPPD enzyme in a total volume of 505 μl. 1 unit is defined as the amount of enzyme that is required to produce 1 nmol of HGA per minute at 20° C.
After a preincubation of 30 min the reaction is started by adding 4-HPP to a final concentration of 0.05 mM. The reaction is allowed to proceed for 45 min at room temperature. The reaction is stopped by the addition of 50 μl of 4.5 M phosphoric acid. The sample is filtered using a […] pore size PVDF filtration device.
5 μl of the cleared sample is analyzed on an UPLC HSS T3 column (particle size 1.8 μm, dimensions 2.1×50 mm; Waters) by isocratic elution using 90% 20 mM NaH2PO4 pH 2.2, 10% methanol (v/v).
HGA is detected electrochemically at 750 mV (mode: DC; polarity: positive) and quantified by integrating peak areas (Empower software; Waters).
Inhibitors are dissolved in DMSO (dimethylsulfoxide) to a concentration of 0.5 mM. From this stock solution serial five-fold dilutions are prepared in DMSO, which are used in the assay. […] IC50 values are calculated using non-linear regression. […]

Structure (SMILES)	leaf material being damaged ([1]; 25 g/ha)	leaf damage [1]	Injury ([2]; Event G, 1.56 g ai/ha) [%]	Injury ([2]; Event G, 6.25 g ai/ha) [%]	Injury ([2]; Event G, 25 g ai/ha) [%]	Injury ([2]; Event H, 1.56 g ai/ha) [%]	Injury ([2]; Event H, 6.25 g ai/ha) [%]	Injury ([2]; Event H, 25 g ai/ha) [%]	Tolerance factor [3]	Tolerance factor [4]	Tolerance factor [5]	Tolerance factor [6]	Tolerance factor [7]	Tolerance factor [8]	Tolerance factor [9]	average injury rate ([2]; 25 g ai/ha, average of events) [%]	resistance of the enzyme to the inhibitor [10]
Cc1c(C(=O)c2cnn(C)c2O)ccc(S(C)(=O)=O)c1C1=NOCC1 [Inhibitor 1, [3-(4,5-dihydroisoxazol-3-yl)-2-methyl-4-methylsulfonyl-phenyl]-(5-hydroxy-1-methyl-pyrazol-4-yl)methanone]	less than 20%	0-8%	5	8	13	0	0	13	100	1000	7	82	50	92	100		
CS(=O)(=O)c1ccc(C(=O)C2C(=O)CCCC2=O)c([N+](=O)[O-])c1 [Inhibitor 2, 2-(4-methylsulfonyl-2-nitro-benzoyl)cyclohexane-1,3-dione]		did not show leaf injury	0	0	95	5	8	58								75	
CCS(=O)(=O)c1cc(C(F)(F)F)ccc1C1=C(O)c2ncccc2C(C)(C)S1(=O)=O [Inhibitor 4, 7-[2-ethylsulfonyl-4-(trifluoromethyl)phenyl]-5,5-dimethyl-6,6-dioxo-thiopyrano[4,3-b]pyridin-8-ol]																	conferred resistance
